# Source: article PMC13040083, “Single-molecule dynamics reveal ATP binding alone powers substrate translocation by an ABC transporter” (Nature Communications, 2026)
# B1: Nb9F10: conformation-independent nanobody tethered via PEG11-biotin (antibody, V domains shown)
# VH: QLQLVESGGGLVQPGDSLRLSCAVSGSALDYNAIGWFRQAPGKEREGVACISKITGNTAYADCVKGRFTISRDNAKNTVHLQMNSLKPEDTAVYYCATVTAVLLPGRCVPGKYWGQGTPVTVSS
# What was measured:
# TmrA^EQB (TmrA^E523QB) = assay: Single-molecule (smFRET) peptide translocation by slow-turnover TmrA^EQB in liposomes; details: 10 µM valinomycin, K+ buffer, Mg-ATP 3 mM, peptide 200 µM, 45 °C 5 min; and control at 30 °C
# Method: For single-molecule experiments, a protein-to-lipid ratio (w/w) of 1:10,000 and an OppA-to-liposome ratio of 0.2 molecules per liposome were used. For ensemble transport assays, a protein-to-lipid ratio (w/w) of 1:20 was applied. Extruded LUVs were destabilized by incubation with 0.3% (v/v) Triton X-100 (TX-100) for 30 min. TmrAB and OppA were then added to the detergent-destabilized liposomes and incubated for 30 min at 8 °C under gentle rotation. Detergent removal was performed gradually using sequential additions of polystyrene Bio-Beads SM-2 (Bio-Rad): two incubations at 40 mg/mL (1 h and overnight), followed by two incubations at 80 mg/mL (1 h each). […]
# Single-molecule FRET experiments were conducted using a flow chamber system to immobilize liposomes and transporters in an uptake-competent orientation. […] Laser powers were set to 0.8 mW/cm^2 (532 nm excitation) and 0.9 mW/cm^2 (640 nm excitation), with data recorded in 1-min intervals.
# Single-molecule FRET (smFRET) measurements were performed using ALEX, allowing the assignment of detected photons based on both excitation and emission wavelength. […] From these signals, FRET efficiency (E) and stoichiometry (S) were calculated and FRET traces extracted using NanoImager software (ONI Nanoimager Development Build) and analyzed with deepFRET[56]. […] Dynamic smFRET traces were further analyzed via HMM by deepFRET. […]
# TmrAB^WT [1] = assay: LC-MS-based peptide transport assay; format: biochemical, Thermus thermophilus; details: Mg-ATP 3 mM, ATP regeneration system, 45 °C 45 min, n = 3 technical replicates
# Method: For single-molecule experiments, a protein-to-lipid ratio (w/w) of 1:10,000 and an OppA-to-liposome ratio of 0.2 molecules per liposome were used. For ensemble transport assays, a protein-to-lipid ratio (w/w) of 1:20 was applied. Extruded LUVs were destabilized by incubation with 0.3% (v/v) Triton X-100 (TX-100) for 30 min. TmrAB and OppA were then added to the detergent-destabilized liposomes and incubated for 30 min at 8 °C under gentle rotation. Detergent removal was performed gradually using sequential additions of polystyrene Bio-Beads SM-2 (Bio-Rad): two incubations at 40 mg/mL (1 h and overnight), followed by two incubations at 80 mg/mL (1 h each). Finally, proteoliposomes were harvested by ultracentrifugation (100,000 × g, 30 min, 4 °C) and resuspended in the appropriate buffer.
# Reactions were stopped with ice-cold liposome buffer containing 10 mM EDTA. Samples were ultracentrifuged (450,000 × g, 30 min, 4 °C), and pellets were resuspended in 200 µL of 100 mM Na2CO3 (pH 11.5), followed by a second ultracentrifugation under the same conditions. […] A final ultracentrifugation (450,000 × g, 1.5 h, 4 °C) was performed before LC-MS analysis using a Waters BioAccord system (UNIFY 3.1.0). […] Quantification was based on total ion chromatogram peak areas at the peptide-specific retention times.
# TmrAB^WT [2] = assay: Filter plate-based peptide transport assay; format: biochemical, Thermus thermophilus; details: C4F 10 µM
# TmrAB^WT [3] = assay: Single-liposome transport monitored by flow cytometry; format: biochemical, Thermus thermophilus; details: flow cytometry single-liposome assay
molecule,measurement,setting,value
CC(C)[C@@H]1NC(=O)[C@H](C)OC(=O)[C@@H](C(C)C)NC(=O)[C@@H](C(C)C)OC(=O)[C@H](C(C)C)NC(=O)[C@H](C)OC(=O)[C@@H](C(C)C)NC(=O)[C@@H](C(C)C)OC(=O)[C@H](C(C)C)NC(=O)[C@H](C)OC(=O)[C@@H](C(C)C)NC(=O)[C@@H](C(C)C)OC1=O [valinomycin],effect of dissipating membrane potential on translocation,TmrA^EQB (TmrA^E523QB),excluded effects from a transmembrane potential
GIINTLEEL [9mer peptide],"ATP-dependent transport, in words",TmrAB^WT [1],signiﬁcant ATP-dependent transport
"RRYC(Fluorescein)KSTEL [C4F, RRYC^FLKSTEL, fluorescein-labeled peptide RRYC^FLKSTEL]","peptide transport, in words",TmrAB^WT [2]; ATP-EDTA 3 mM,no transport above ADP-EDTA (3 mM) background
same,"peptide transport, in words",TmrAB^WT [2]; Mg-ATP 3 mM,robust transport
same,"ATP-dependent transport, in words",TmrAB^WT [1],signiﬁcant ATP-dependent transport
B1,effect of nanobody binding on TmrAB transport activity,TmrAB^WT [3],did not alter transport activity
